Data published in patent US8178506B2, “Oligomeric compounds and compositions for use in modulation of small non-coding RNAs” (Regulus Therapeutics Inc., priority 2003, dated 2012).

How the values were obtained:
PPP2CB protein = assay: Immunoblot of PPP2CB protein in differentiating adipocytes; format: cell-based, human; settings: differentiating adipocytes 7- and 10-days post-differentiation, 250 nM
Method: When miRNAs have effects on the expression of downstream genes or proteins encoded by these genes, it is advantageous to measure the protein levels of those gene products, and to do this, western blot (immunoblot) analysis is employed. Immunoblot analysis is carried out using standard methods. Briefly, preadipocytes and differentiating adipocytes were cultured as described previously, and differentiating adipocytes are sampled at several timepoints after stimulation of differentiation. Cells were treated with 250 nM oligomeric compounds and harvested 16-20 h after oligomeric compound treatment. Cells were washed, lysed in RIPA buffer with protease inhibitor cocktail (Roche Diagnostics Corporation, Indianapolis, Ind.), suspended in Laemmli buffer (20 ul/well), boiled for 5 minutes and loaded onto either an 8% SDS-PAGE or a 4-20% gradient SDS-PAGE gel. Gels are run for approximately 1.5 hours at 150 V, and transferred to PVDF membrane for western blotting. […] Bands are visualized and quantitated using a PHOSPHORIMAGER™ (Molecular Dynamics, Sunnyvale Calif.) or the ChemiDoc™ system (Bio-Rad Laboratories, Inc., Hercules, Calif.). Thus, the effects of treatment of many cell types (including, but not limited to, preadipocytes, differentiating adipocytes, HeLa, T-24 and A549 cells) with oligomeric compounds of the present invention on the levels of gene expression products can be assessed. […]

A549 cells = assay: Cell cycle assay in A549 cells; format: cell-based, human; settings: A549 cells, 24 hours, relative to the untreated control cells in that phase
Method: In accordance with the present invention, certain oligomeric compounds targeting miRNAs were selected for dose response studies. Using the cell cycle assay described above, the cell cycle profiles of HeLa or A549 cells treated with varying concentrations of oligomeric compounds of the present invention were assessed.
Concomittent decreases in the percentage of cells in G1-phase of the cell cycle and increases in the percentage of hypodiploid (subG1) cells were also observed.
In a further study, A549 cells were treated with 25-, 50-, 100- or 150 nM of the oligomeric compounds ISIS Numbers 338637 (SEQ ID NO: 464) targeted against mir-96, and ISIS 338769 (SEQ ID NO: 596) targeted against mir-130b, ISIS 338836 (SEQ ID NO: 663) targeted against mir-23a, and ISIS 340350 (SEQ ID NO: 855) targeted against mir-95 (Mourelatos). Cells treated with increasing concentrations of oligomeric compounds were compared to untreated cells, to assess the dose-responsiveness of the observed delay or arrest. The random-mer ISIS 29848 was used as a negative control. Cells were prepared for flow cytometry 24-hours after oligonucleotide treatment. Results of these dose response studies are shown in Table 34, where data are expressed as percentage of cells in each phase relative to the untreated control cells in that phase.

## TGAGCTACAGTGCTTCATCTCA [ISIS 327901] (chemistry not given here) [uniform 2′-MOE PS; targets mir-143]
PPP2CB protein
  PPP2CB protein levels: higher

## 340350 (antisense TGCTCAATAAATACCCGTTGAA; all 2'-MOE, all phosphorothioate, methylation of C not given here) [compound 340350]
A549 cells; 25 nM
  % cells in cell cycle phase: G1: 102%
  % cells in cell cycle phase: G2/M: 95%
  % cells in cell cycle phase: S: 100%
  % cells in cell cycle phase: aneuploid: 120%
  % cells in cell cycle phase: subG1: 91%
A549 cells; 50 nM
  % cells in cell cycle phase: G1: 128%
  % cells in cell cycle phase: G2/M: 126%
  % cells in cell cycle phase: S: 67%
  % cells in cell cycle phase: aneuploid: 80%
  % cells in cell cycle phase: subG1: 158%
A549 cells; 100 nM
  % cells in cell cycle phase: G1: 125%
  % cells in cell cycle phase: G2/M: 155%
  % cells in cell cycle phase: S: 60%
  % cells in cell cycle phase: aneuploid: 107%
  % cells in cell cycle phase: subG1: 267%
A549 cells; 150 nM
  % cells in cell cycle phase: G1: 128%
  % cells in cell cycle phase: G2/M: 211%
  % cells in cell cycle phase: S: 40%
  % cells in cell cycle phase: aneuploid: 108%
  % cells in cell cycle phase: subG1: 402%
